Results as given in paper PMC7083851, “Extended pharmacodynamic responses observed upon PROTAC-mediated degradation of RIPK2” (Communications Biology, 2020).
“And” between values parts separate entries of the source, which are not always exact repeats. Equal entries are not always repeated. Where two headings read alike, the source gives them in different places.

What was measured:
[1] = test system: L18-MDP-induced TNFα release; experiment: L18-MDP-induced cytokine release (TNFα, IL1β, IL-6, IL-8, IL-10) in human PBMCs; assay type: cell-based; conditions: L18-MDP-induced TNFα release, human PBMCs, 6 h
Protocol: PBMCs were isolated from leukodepletion filter from platelet aphaeresis supplied by National Health System Blood and Transplant—NHSBT Apheresed at NHBST.
Before treatment with compound or vehicle, THP1 cells, human and rat PBMCs were counted using Vi-Cell cell counter (Invitrogen) and adjusted to a final cell density of […] using complete growth medium. Cells or whole blood were treated with vehicle (0.1% DMSO) or fixed concentrations of compound up to 1 μM in half log unit increments and incubated for the time period indicated in the figure.
Where the assessment of cytokines was performed, L18-MDP was added to the cell culture media (1 μg/ml) or to the rat blood samples (100 ng/ml) and samples were incubated for up to 4 h. […] Samples were them spun down at 1000 g and the cell culture supernatant, plasma or serum were collected for cytokines assessment, while cell pellets were used for RIPK2 and/or cIAP1, cIAP2, and XIAP levels analysis via immunoblotting.
Cytokine measurement assay: Cytokine levels were measured in rat plasma or rat PBMCs cell culture supernatants using rat V-Plex TNFα, in human plasma or human PBMCs cell culture supernatants with either TNFα tissue culture or 7-plex kit. Rat serum and tissues samples from the in vivo L18-MDP acute inflammation model were analyzed using the rat TNFα, Il-6 and IL-8 U-Plex kits. All kits provided by Meso Scale Discovery (MSD). Levels of cytokines spontaneously released from human colon biopsies cell culture supernatants were measured using Human IL-1 beta/IL-1F2 DuoSet ELISA (Bio-techne), Human IL-6 ELISA (Immunotools) and Human TNF-alpha DuoSet ELISA (Bio-techne). All samples were processed accordingly to the manufacturer’s instructions. The MSD plates were analyzed using the MSD sector imager 6000 plate reader and cytokines concentration (pg/ml) was obtained by using the MSD DISCOVERY WORKBENCH software version 4.0.12.1
In vitro experimental data were analyzed using a 4-parameter logistic equation in GraphPad Prism 5.0.4. to generate an estimate of the half-maximal concentration and maximal degradation, DC50 and Dmax value respectively, for concentration-degradation relationships. Cytokine levels were analyzed in a similar manner to yield IC50 and Imax values. […] Where analysis to a sigmoidal relationship was not possible, the data points are shown as mean ± s.e.m.

[2] = Blood concentrations after subcutaneous dosing in rat PK/PD studies; assay type: in vivo
Protocol: Female CD rats (7–8 weeks old on arrival, Charles River Ltd.) were placed into groups using a randomization schedule based on body weight prior to the study start. All animals were acclimatized for a minimum of one week prior to the experiment commencing. […] PROTAC 4 was dissolved in saline with the pH adjusted to 5.0 with sodium hydroxide (1 M).

RIPK2 = experiment: In vivo RIPK2 degradation in rat (PBMCs isolated from blood, Western blot)
Protocol: Rat PK/PD studies: On arrival, all rats were housed in a plastic solid bottom cage in groups of 2–3 with access to food and water ad libitum and under a 12 h light–dark cycle. Male CD or Wistar Han rats (7–9 weeks old, Charles River UK Ltd.) were randomly allocated to treatment groups upon arrival. Female CD rats (7–8 weeks old on arrival, Charles River Ltd.) were placed into groups using a randomization schedule based on body weight prior to the study start. All animals were acclimatized for a minimum of one week prior to the experiment commencing.
Subcutaneous PROTAC solution formulations were prepared on the day of dosing as outlined below and filtered through a 0.22 µm Millex PVDF filter (Millipore) prior to PROTAC administration. PROTAC 4 was dissolved in saline with the pH adjusted to 5.0 with sodium hydroxide (1 M). […].
Ex vivo stimulation of rat blood with L18-MDP for PD: PPD blood samples taken prior to PROTAC administration or at fixed timepoints post PROTAC administration through the course of the study, were treated ex vivo with 100 ng/mL L18-MDP (Invivogen) or vehicle (0.1% DMSO) and incubated for 4 h. Following centrifugation, plasma was collected for cytokines analysis as detailed in cytokines assay section. Additionally, RIPK2 levels were determined in PBMCs isolated from blood and where collected, in sampled colon tissue as described in the text.
Blood was mixed with optiPREP (Sigma) and following centrifugation at 1300 × g the PBMCs layer was collected. For in vivo studies, RIPK2 levels were determined immediately via immunoblotting, whereas for in vitro studies PBMCs were treated as detailed in the in vitro treatment section.
Statistics and reproducibility: All data were represented as percentage of the control sample: DMSO treated cells for the in vitro assays and the pre-dose or vehicle sample for the in vivo experiments.
For in vivo studies, RIPK2:tubulin ratios and cytokine levels from each individual experiment were analysed either using a One-way ANOVA with Dunnet’s post-test or a two way ANOVA using GraphPad Prism 5.0.4 to determine statistical significance with 95% confidence levels.

[3] = 20 mg/kg SC single dose, 7-day study, 8 h
[4] = 20 mg/kg SC single dose, 7-day study, 24 h
[5] = 20 mg/kg SC single dose, 7-day study, 72 h
[6] = 20 mg/kg SC single dose, 7-day study, 168 h
[7] = 20 mg/kg SC, 14-day study, 72 h
[8] = 20 mg/kg SC, 14-day study, 240 h

CN[C@@H](C)C(=O)N[C@H](C(=O)N1CCC[C@H]1c1nc(C(=O)c2ccc(F)cc2)cs1)C1CCN(C(=O)c2cnc(N3CCN(CCOc4cc5ncnc(Nc6n[nH]c(C)c6C)c5cc4S(=O)(=O)C(C)(C)C)CC3)nc2)CC1 [PROTAC 4]
hPBMC MDP pIC50 ± SEM, 6 h (n = 3) [1]: 8.0 ± 0.5
blood concentration, individual rat ([2]; 5 mg/kg SC, 14-day study, 0.25 h): 79.2 ng/mL and 80.8 ng/mL and 137 ng/mL
PK, blood concentration, individual rat ([2]; 20 mg/kg SC single dose, 7-day study, 0.25 h): 142.1 ng/mL and 262.3 ng/mL and 219.2 ng/mL and 88.3 ng/mL and 114.7 ng/mL
PK, blood concentration, individual rat ([2]; 20 mg/kg SC single dose, 7-day study, 0.5 h): 113.3 ng/mL and 220.7 ng/mL and 177.2 ng/mL and 88.4 ng/mL and 248.8 ng/mL
PK, blood concentration, individual rat ([2]; 20 mg/kg SC single dose, 7-day study, 1 h): 131.0 ng/mL and 198.9 ng/mL and 114.6 ng/mL and 195.5 ng/mL
PK, blood concentration, individual rat ([2]; 20 mg/kg SC single dose, 7-day study, 2 h): 110.9 ng/mL and 278.2 ng/mL and 204.9 ng/mL and 96.5 ng/mL and 292.6 ng/mL
PK, blood concentration, individual rat ([2]; 20 mg/kg SC single dose, 7-day study, 4 h): 211.6 ng/mL and 307.5 ng/mL and 375.8 ng/mL and 186.8 ng/mL and 240.9 ng/mL
PK, blood concentration, individual rat [2, 3]: 104.7 ng/mL and 227.5 ng/mL and 262.0 ng/mL and 193.4 ng/mL and 268.5 ng/mL
PK, blood concentration, individual rat [2, 4]: 240.6 ng/mL and 261.7 ng/mL and 347.0 ng/mL and 497.6 ng/mL and 315.9 ng/mL and 347 ng/mL
PK, blood concentration, individual rat [2, 5]: 253.7 ng/mL and 143.8 ng/mL and 111.7 ng/mL and 90.2 ng/mL and 121.5 ng/mL and 90.15 ng/mL
PK, blood concentration, individual rat [2, 6]: 15.0 ng/mL and 7.4 ng/mL and 9.6 ng/mL and 9.4 ng/mL and 6.1 ng/mL and 15.02 ng/mL and 7.438 ng/mL and 9.644 ng/mL and 9.399 ng/mL and 6.103 ng/mL
blood concentration, individual rat ([2]; 20 mg/kg SC, 14-day study, 0.25 h): 103 ng/mL and 111 ng/mL and 92.3 ng/mL and 10.6 ng/mL and 39.4 ng/mL
blood concentration, individual rat ([2]; 20 mg/kg SC, 14-day study, 0.5 h): 115 ng/mL and 140 ng/mL and 82.5 ng/mL and 99.9 ng/mL
blood concentration, individual rat ([2]; 20 mg/kg SC, 14-day study, 1 h): 173 ng/mL and 63.3 ng/mL and 90.1 ng/mL and 113 ng/mL and 45.9 ng/mL
blood concentration, individual rat ([2]; 20 mg/kg SC, 14-day study, 2 h): 141 ng/mL and 113 ng/mL and 120 ng/mL and 223 ng/mL
blood concentration, individual rat ([2]; 20 mg/kg SC, 14-day study, 4 h): 226 ng/mL and 313 ng/mL and 572 ng/mL and 294 ng/mL and 206 ng/mL
blood concentration, individual rat ([2]; 20 mg/kg SC, 14-day study, 8 h): 159 ng/mL and 180 ng/mL and 329 ng/mL and 167 ng/mL and 200 ng/mL
blood concentration, individual rat ([2]; 20 mg/kg SC, 14-day study, 24 h): 698 ng/mL and 518 ng/mL and 213 ng/mL and 503 ng/mL and 150 ng/mL
blood concentration, individual rat [2, 7]: 14.1 ng/mL and 69.4 ng/mL and 30 ng/mL and 33.4 ng/mL and 57.6 ng/mL
blood concentration, individual rat ([2]; 20 mg/kg SC, 14-day study, 168 h): 3.47 ng/mL and 10.5 ng/mL and 2.32 ng/mL and 3.82 ng/mL and 4.88 ng/mL
blood concentration, individual rat [2, 8]: 1.11 ng/mL and 2.09 ng/mL and 1.34 ng/mL
concentration at 7 days ([2]; rat, blood, sc, 20 mg/kg, rat, single 20 mg/kg SC, after 7 days, read-out: compound levels in blood at later time-points): < 10 ng/mL
concentration at 1 h ([2]; rat, blood, subcutaneous, 20 mg/kg, 20 mg/kg SC single dose, 7-day study, 1 h, read-out: PK, blood concentration, individual rat): 132 ng/mL
concentration at 0.5 h ([2]; rat, blood, subcutaneous, 20 mg/kg, 20 mg/kg SC, 14-day study, 0.5 h, read-out: blood concentration, individual rat): 126 ng/mL
concentration at 2 h ([2]; rat, blood, subcutaneous, 20 mg/kg, 20 mg/kg SC, 14-day study, 2 h, read-out: blood concentration, individual rat): 124 ng/mL
concentration at 240 h ([2]; rat, blood, subcutaneous, 20 mg/kg, 20 mg/kg SC, 14-day study, 240 h, read-out: blood concentration, individual rat): 1.68 ng/mL
concentration at […] ([2]; rat, blood, subcutaneous, 20 mg/kg, 20 mg/kg SC, 14-day study, […], read-out: blood concentration, individual rat): 1.71 ng/mL
concentration at 24 h ([2]; rat, whole blood, subcutaneous, 1 mg/kg, 1 mg/kg SC, 14-day study, 24 h, read-out: blood concentration, individual rat): 7.14 ng/mL
concentration at 72 h ([2]; rat, whole blood, subcutaneous, 1 mg/kg, 1 mg/kg SC, 14-day study, 72 h, read-out: blood concentration, individual rat): 1.67 ng/mL
concentration at 24 h ([2]; rat, whole blood, subcutaneous, 5 mg/kg, 5 mg/kg SC, 14-day study, 24 h, read-out: blood concentration, individual rat): 29.2 ng/mL
concentration at 168 h ([2]; rat, whole blood, subcutaneous, 5 mg/kg, 5 mg/kg SC, 14-day study, 168 h, read-out: blood concentration, individual rat): 4.77 ng/mL
concentration at 240 h ([2]; rat, whole blood, subcutaneous, 5 mg/kg, 5 mg/kg SC, 14-day study, 240 h, read-out: blood concentration, individual rat): 1.13 ng/mL
RIPK2 level vs pre-dose, individual rat (RIPK2; 1 mg/kg SC, 14-day study, 8 h): 71.55% and 45.26% and 58.63% and 60.59% and 55.33%
RIPK2 level vs pre-dose, individual rat (RIPK2; 1 mg/kg SC, 14-day study, 72 h): 64.81% and 59.31% and 60.99% and 66.83% and 64.49%
RIPK2 level vs pre-dose, individual rat (RIPK2; 1 mg/kg SC, 14-day study, 240 h): 112.79% and 70.63% and 104.75% and 126.83% and 102.52%
RIPK2 level vs pre-dose, individual rat (RIPK2; 5 mg/kg SC, 14-day study, 8 h): 41.85% and 45.44% and 41.77% and 41.32% and 53.21%
RIPK2 level vs pre-dose, individual rat (RIPK2; 5 mg/kg SC, 14-day study, 72 h): 34.61% and 30.18% and 38.68% and 37.78% and 36.11%
RIPK2 level vs pre-dose, individual rat (RIPK2; 5 mg/kg SC, 14-day study, 240 h): 87.11% and 99.39% and 92.18% and 103.23% and 99.62%
RIPK2 level vs pre-dose, individual rat (RIPK2; [3]): 28.87% and 26.27% and 38.47% and 28.32% and 30.61%
RIPK2 level vs pre-dose, individual rat (RIPK2; [4]): 18.69% and 14.21% and 28.44% and 16.94% and 23.48%
RIPK2 level vs pre-dose, individual rat (RIPK2; [5]): 6.86% and 4.61% and 6.88% and 8.62% and 8.55%
RIPK2 level vs pre-dose, individual rat (RIPK2; [6]): 12.52% and 6.26% and 20.35% and 12.51% and 16.81%
RIPK2 level vs pre-dose, individual rat (RIPK2; 20 mg/kg SC, 14-day study, 8 h): 37.50% and 45.03% and 47.72% and 58.85% and 77.11%
RIPK2 level vs pre-dose, individual rat (RIPK2; [7]): 13.52% and 12.63% and 25.66% and 9.20% and 12.50%
RIPK2 level vs pre-dose, individual rat (RIPK2; [8]): 60.06% and 118.48% and 58.34% and 98.90% and 86.42%
RIPK2 degradation (RIPK2; rat, 14-day study, all dose levels (1, 5, 20 mg/kg SC), 8 h): 40–60%
RIPK2 protein levels, in words (RIPK2; rat, 14-day study, each dose group, 240 h): returned to baseline levels
RIPK2 degradation (RIPK2; rat, single 20 mg/kg SC, 72 h): > 80%
RIPK2 degradation (RIPK2; rat, single 20 mg/kg SC, 168 h): > 80%
